Experimental data reported in patent US6949522B2, “β-2′- or 3′-halonucleosides” (Pharmasset, Inc., priority 2001, dated 2005).
Marks after values point to notes of the source that are not given here. Values belong to the compound of their own block, whether it stands above or below them.

Legend:
β-actin gene = format: cell-based, human; conditions: HepG2, 10 μM, 7 days
Protocol: (§1) Low passage number HepG2 cells, obtained from American Tissue Culture Collection (ATCC, Manassas, Va.) were seeded at 5,000 cells/well in collagen-coated 96-well plates. Test compounds were added to the media to obtain a final concentration of 10 μM. On culture day 7, cellular nucleic acids were prepared by using commercially available columns (RNeasy 96 kit, Qiagen). […] The mitochondrial cytochrome C oxidase subunit II (COXII) gene and the β-actin or rRNA gene were amplified from 5 μL with a multiplex Q-PCR protocol using the suitable primers and probes for both target and reference (designed using the Primer Express software, Applied Biosystems); • for COXII. • sense primer 5′-[…]-3′ (Sequence 7); • probe 5′-TET-[…]-TAMRA-3′ (Sequence 8); and • antisense probe 5′-[…]-3′ (Sequence 9); • for exon 3 of β-actin (GenBank E01094): • sense primer 5′-[…]-3′ (Sequence 10); • probe 5′-6FAM-[…]-TAMRA-3′ (Sequnece 11); and • antisense probe 5′-[…]-3′ (Sequence 12).
(§2) The rRNA gene primers and probes were purchased from Applied Biosystems. Standard curves using 1-log diluted total HepG2 DNA were linear over more than 5 logs. In addition, efficiencies of target (COXII DNA) and reference (β-actin DNA or rRNA) amplification were approximately equal, because the slope of the ΔCt line (Ct β-actin minus Ct mitochondrial) was less than 0.1 (not shown). Since equal amplification efficiencies were obtained for both genes, the comparative cycle threshold (Ct) method was used to investigate potential inhibition of the mitochondrial DNA polymerase γ. The comparative Ct method uses arithmetic formulas in which the amount of target (COXII gene) is normalized to an endogenous reference (β-actin gene or rRNA gene) and is relative to a calibrator (no drug control at day 7). The arithmetic formula for this approach is given by 2-ΔΔCt (User bulletin # 2, Applied Biosystems).
(§3) In order to study the consequences of possible inhibitory effects of these compounds on host DNA polymerases, nuclear and rnitochondrial DNA levels were quantified and compared to no-treatment controls. Cells were incubated for 7 days with 10 μM of each compound, followed by total nucleic acid extractions and multiplex Q-PCR of the rRNA gene and the mitochondrial COXII gene. Nucleic acids from cells exposed to the control compounds were also amplified in multiplex for mitDNA and the β-actin gene. The results are presented in Table 4 using the comparative Ct method.

rRNA gene = format: cell-based, human; conditions: HepG2, 10 μM, 7 days
Protocol: Low passage number HepG2 cells, obtained from American Tissue Culture Collection (ATCC, Manassas, Va.) were seeded at 5,000 cells/well in collagen-coated 96-well plates. Test compounds were added to the media to obtain a final concentration of 10 μM. On culture day 7, cellular nucleic acids were prepared by using commercially available columns (RNeasy 96 kit, Qiagen).
The rRNA gene primers and probes were purchased from Applied Biosystems. […] The comparative Ct method uses arithmetic formulas in which the amount of target (COXII gene) is normalized to an endogenous reference (β-actin gene or rRNA gene) and is relative to a calibrator (no drug control at day 7). The arithmetic formula for this approach is given by 2-ΔΔCt (User bulletin # 2, Applied Biosystems).
as §3, with “gene.” for “gene. The results are presented in Table 4 using the comparative Ct method.”

[1] = test system: mitochondrial cytochrome C oxidase subunit II (COXII) gene; format: cell-based, human; conditions: HepG2, 10 μM, 7 days
From the text: The Q-RT-PCR technology was also used to evaluate potential mitochondrial γ-DNA polymerase inhibition by the compounds of the present invention in relevant human cells. […] Since active nucleoside compounds in the triphosphate form lack a 3′-OH, thereby stopping virus replication by chain termination, there is a concern that these nucleoside analogues are also substrates for the human DNA polymerase γ, resulting in inhibition of mitochondrial DNA replication and subsequently toxic side effects (11, 19). In an attempt to provide direct quantifiable data on mitochondrial DNA levels intracellular, a Q-PCR technology was designed and relative quantification of COXII DNA levels were calculated using the comparative Ct method. […] Also, in agreement with previous observations, no changes in normalized mitochondrial DNA levels were observed after FIAU and D4T treatment (6, 8, 23).
as §1, §2, §3

HIV-1M184V = conditions: cited from earlier work
HIV-1xxBRU = conditions: cited from earlier work
[2] = test system: Vero (African green monkey kidney) cells; experiment: in vitro; format: cell-based
Protocol: (§4) The compounds were evaluated for their potential toxic effects on uninfected PHA-stimulated human PBM cells, in CEM (T-lymphoblastoid cell line obtained from American Type Culture Collection, Rockville, Md.) and Vero (African green monkey kidney) cells. PBM cells were obtained from whole blood of healthy seronegative donors (HIV-1 and hepatitis B virus) by single-step Ficoll-Hypaque discontinous gradient centrifugation. Log phase Vero, CEM and PHA-stimulated human PBM cells were seeded at a density of 5×10^3, 2.5×10^3 and 5×10^4 cells/well respectively. All of the cells were plated in 96-well cell culture plates containing ten-fold serial dilutions of the test drug. The cultures were incubated for 3, 4 and 5 days for Vero, CEM, and PBM cells, respectively in a humidified 5% CO2-air at 37° C. At the end of incubation, MTT tetrazolium dye solution (Cell titer 96®, Promega, Madison, Wis.) was added to each well and incubated overnight. The reaction was stopped with stop solubilization solution (Promega, Madison, Wis.). The plates were incubated for 5 hours to ensure that the formazan crystals were dissolved. The plates were read at a wavelength of 570 nm using an ELISA plate reader (Bio-tek instruments, Inc., Winooski, Vt., Model # EL 312e). […] Bookmark not defined.

HIV-1LAI = experiment: HIV assay in human PBM cells (RT activity of supernatant); format: cell-based; conditions: 5 days, read-out: Anti-HIV-1 Activity (EC50)
From the text: Human peripheral blood mononuclear (PBM) cells (obtained from Atlanta Red Cross) were isolated by Ficoll-Hypaque discontinuous gradient centrifugation from healthy seronegative donors. Cells were stimulated with phytohemagglutinin A (Difco, Sparks, Md.) for 2-3 days prior to use. HIV-1LAI obtained from the Centers for Disease Control and Prevention (Atlanta, Ga.) was used as the standard reference virus for the antiviral assays. The molecular infetious clones HIV-1xxBru and HIV-1M184Vpin were obtained from Dr. John Mellors (University of Pittsburgh). Infections were done in bulk for one hour, either with 100 TCID50/1×10^7 cells for a flask (T25) assay or with 200 TCID50/6×10^5 cells/well for a 24 well plate assay. Cells were added to a plate or flask containing a ten-fold serial dilution of the test compound. Assay medium was RPMI-1640 supplemented with heat inactivated 16% fetal bovine serum, 1.6 mM L-glutamine, 80 IU/ml penicillin, 80 μg/ml streptomycin, 0.0008% DEAE-Dextran, 0.045% sodium bicarbonate, and 26 IU/ml recombinant interleukin-2 (Chiron Corp, Emeryville, Calif.). AZT was used as a positive control for the assay. Untreated and uninfected PBM cells were grown in parallel at equivalent cell concentrations as controls. The cell cultures were maintained in a humidified 5% CO2-air at 37° C. for 5 days and supernatants were collected for reverse transcriptase (RT) activity.
Supernatants were centrifuged at 12,000 rpm for 2 hours to pellet the virus. The pellet was solubilized with vortexing in 100 μl virus solubilization buffer (VSB) containing 0.5% Triton X-100, 0.8 M NaCl, 0.5 mM phenylmethylsulfonyl fluoride, 20% glycerol, and 0.05 M Tris, pH 7.8. Ten μL of each sample were added to 75 μL RT reaction mixture (0.06 M Tris, pH 7.8, 0.012 M MgCl2, 0.006 M dithiothreitol, 0.006 mg/ml poly (rA)n, oligo (dT)12-18, 96 μg/ml dATP, and 1 μM of 0.08 mCi/ml ^3H-thymidine triphosphate (Moravek Biochemicals, Brea, Calif.) and incubated at 37° C. for 2 hours. The reaction was stopped by the addition of 100 μL 10% trichloroacetic acid containing 0.05% sodium pyrophosphate. The acid insoluble product was harvested onto filter paper using a Packard Harvester (Meriden, Conn.), and the RT activity was read on a Packard Direct Beta Counter (Meriden, Conn.). The RT results were expressed in counts per minute (CPM) per milliliter.

[3] = target: T1, adenosine deaminase (EC.3.5.4.4. from calf intestinal mucosa) (Bos taurus, UniProt P56658); experiment: in vitro
T1 sequence (P56658 1-363): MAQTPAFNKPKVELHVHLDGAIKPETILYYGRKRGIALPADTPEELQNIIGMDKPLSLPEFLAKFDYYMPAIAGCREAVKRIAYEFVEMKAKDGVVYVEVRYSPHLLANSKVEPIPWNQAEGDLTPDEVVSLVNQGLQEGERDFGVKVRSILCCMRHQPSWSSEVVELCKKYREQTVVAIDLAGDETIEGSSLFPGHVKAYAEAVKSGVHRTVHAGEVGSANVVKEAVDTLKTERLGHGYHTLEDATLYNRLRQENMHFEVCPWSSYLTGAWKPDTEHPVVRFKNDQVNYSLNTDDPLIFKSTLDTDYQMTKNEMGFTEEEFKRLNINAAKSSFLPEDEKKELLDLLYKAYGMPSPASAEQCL
Protocol: Assays were performed at 25° C. in phosphate buffer solution (pH 7.4) with substrate concentrations in the range of 15-100 μM and with 0.15 unit of adenosine deaminase (EC.3.5.4.4. from calf intestinal mucosa). The assays were monitored with a UV spectrometer at 265 nm. Initially, the qualitative assays were performed with D-β-2′-F-4′-S-d4A 24 (200 μM) in the presence of 0.24 unit of adenosine deaminase for 120 minutes to determine whether it is a substrate of this enzyme. The concentration (ct) of each substrate at a certain time (t) was calculated from the absorbance (At) at that time (t), where it was assumed that the total change of absorbance (A0−A∞) was directly related to the disappearance of the substrate.^35 Initial hydrolysis rates for each substrate concentration were measured manually through graphical curve fitting of the concentration versus time data for reaction of each substrate. From Lineweaver-Burke plot of these initial rates, Vmax (maximum velocity) and KM (Michaelis constant) were obtained for each substrate and kcat was also calculated with 0.15 unit of the enzyme (M.W. 33,000) in 2 mL of buffer solution.

human PBM cells = experiment: in vitro; format: cell-based
Protocol: as §4, with “Log phase Vero, CEM and PHA-stimulated human PBM cells were seeded at a density of 5×10^3, 2.5×10^3 and 5×10^4 cells/well respectively.” left out, “The cultures were incubated for 3, 4 and 5 days for Vero, CEM, and PBM cells, respectively in a humidified 5% CO2-air at 37° C.” left out

[4] = test system: CEM (T-lymphoblastoid cell line); format: cell-based
Protocol: as §4

[5] = human PBM cells, Ref. 11(b) Lee et al.

melting point: 146 to 148 °C (dec.)
Compound: Cc1cn([C@@H]2C=C(F)[C@H](CO)O2)c(=O)[nH]c1=O [Compound 28, 1-(2,3-dideoxy-3-fluoro-β-L-glycero-pent-2-eno-furanosyl)thymine]

Compound: Nc1ccn(C2CSC(CO)O2)c(=O)n1 (single isomer, unassigned; (+)) [(+)-BCH-189, (+)-β-2′,3′-dideoxy-3′-thiacytidine]
Average ΔCt ± SD β-actin DNA (β-actin gene): −0.36 ± 0.31 | Average ΔCt ± SD rDNA (rRNA gene): −0.14 ± 0.61 | Average ΔΔCt ± SD rDNA-β-actin (rRNA gene): 0.23 ± 0.39 | COXIINrDNA (range) relative to control ([1]; COXII DNA normalized to rDNA, 2-ΔΔCt): 0.20 (0.13-0.32) | COXIINβ-actin DNA (range) relative to control ([1]; COXII DNA normalized to β-actin DNA, 2-ΔΔCt): 0.17 (0.14-0.22) | Average ΔΔCt ± SD COXII-rDNA [1]: 2.3 ± 0.66^d | Average ΔΔCt ± SD COXII-β-actin [1]: 2.53 ± 0.36^d | effect on (normalized) mitochondrial COXII DNA levels, in words [1]: reduce rnitochondrial COXII DNA levels

Compound: Nc1nc(=O)n([C@@H]2O[C@H](CO)C=C2F)cc1F [β-D-2′-F-d4FC]
EC50 (HIV-1M184V; EC50 instead of EC90 (footnote g), Ref. 23, read-out: Activity M184V, anti-HIV activity in EC50): 9.6 µM | FI, fold increase (EC90 HIV-1M184V/EC90 HIV-1xxBRU) (HIV-1M184V; Ref. 11(b) Lee et al.): 3.5 | F1 (fold increase) in EC50 (HIV-1M184V; fold increase in EC50 (footnote g), Ref. 23): 3^g | EC90 (HIV-1M184V; [5]): 34.7 µM | EC50 (HIV-1xxBRU; EC50 instead of EC90 (footnote g), Ref. 23, read-out: Activity WT (xxBRU), anti-HIV activity in EC50): 3.1 µM | EC90 (HIV-1xxBRU; [5]): 9.9 µM

melting point: 140 °C (dec.)
Compound: Cc1cn([C@@H]2CC(F)(F)[C@H](CO)O2)c(=O)[nH]c1=O [Compound 26, 1-(2,3-Dideoxy-3,3-difluoro-β-L-ribofuranosyl)thymine]

Compound: Nc1ncnc2c1ncn2[C@@H]1S[C@H](CO)C=C1F [Compound D-27, (−)-9-[(1R,4S)-2,3-dideoxy-2,3-didehydro-2-fluoro-4-thio-β-D-ribofuranosyl]-adenine]
IC50 [2]: > 100 µM | EC50 (HIV-1LAI): 8.1 µM | kcat ([3]; 25° C., pH 7.4, 0.15 unit of enzyme): 0.94 s⁻¹ | Km ([3]; 25° C., phosphate buffer pH 7.4, substrate of ADA): 18.3 µM | t½ ([3]; bovine): 33 min | IC50 (human PBM cells): > 100 µM | IC50 [4]: > 100 µM
